Counter-ions that a name gives are not always drawn.

The term IC50 denotes the point on the concentration scale where inhibition reaches its midpoint.

In the assay the target is T1, SOS1 (Homo sapiens, UniProt Q07889).
T1 sequence (Q07889 1-1333): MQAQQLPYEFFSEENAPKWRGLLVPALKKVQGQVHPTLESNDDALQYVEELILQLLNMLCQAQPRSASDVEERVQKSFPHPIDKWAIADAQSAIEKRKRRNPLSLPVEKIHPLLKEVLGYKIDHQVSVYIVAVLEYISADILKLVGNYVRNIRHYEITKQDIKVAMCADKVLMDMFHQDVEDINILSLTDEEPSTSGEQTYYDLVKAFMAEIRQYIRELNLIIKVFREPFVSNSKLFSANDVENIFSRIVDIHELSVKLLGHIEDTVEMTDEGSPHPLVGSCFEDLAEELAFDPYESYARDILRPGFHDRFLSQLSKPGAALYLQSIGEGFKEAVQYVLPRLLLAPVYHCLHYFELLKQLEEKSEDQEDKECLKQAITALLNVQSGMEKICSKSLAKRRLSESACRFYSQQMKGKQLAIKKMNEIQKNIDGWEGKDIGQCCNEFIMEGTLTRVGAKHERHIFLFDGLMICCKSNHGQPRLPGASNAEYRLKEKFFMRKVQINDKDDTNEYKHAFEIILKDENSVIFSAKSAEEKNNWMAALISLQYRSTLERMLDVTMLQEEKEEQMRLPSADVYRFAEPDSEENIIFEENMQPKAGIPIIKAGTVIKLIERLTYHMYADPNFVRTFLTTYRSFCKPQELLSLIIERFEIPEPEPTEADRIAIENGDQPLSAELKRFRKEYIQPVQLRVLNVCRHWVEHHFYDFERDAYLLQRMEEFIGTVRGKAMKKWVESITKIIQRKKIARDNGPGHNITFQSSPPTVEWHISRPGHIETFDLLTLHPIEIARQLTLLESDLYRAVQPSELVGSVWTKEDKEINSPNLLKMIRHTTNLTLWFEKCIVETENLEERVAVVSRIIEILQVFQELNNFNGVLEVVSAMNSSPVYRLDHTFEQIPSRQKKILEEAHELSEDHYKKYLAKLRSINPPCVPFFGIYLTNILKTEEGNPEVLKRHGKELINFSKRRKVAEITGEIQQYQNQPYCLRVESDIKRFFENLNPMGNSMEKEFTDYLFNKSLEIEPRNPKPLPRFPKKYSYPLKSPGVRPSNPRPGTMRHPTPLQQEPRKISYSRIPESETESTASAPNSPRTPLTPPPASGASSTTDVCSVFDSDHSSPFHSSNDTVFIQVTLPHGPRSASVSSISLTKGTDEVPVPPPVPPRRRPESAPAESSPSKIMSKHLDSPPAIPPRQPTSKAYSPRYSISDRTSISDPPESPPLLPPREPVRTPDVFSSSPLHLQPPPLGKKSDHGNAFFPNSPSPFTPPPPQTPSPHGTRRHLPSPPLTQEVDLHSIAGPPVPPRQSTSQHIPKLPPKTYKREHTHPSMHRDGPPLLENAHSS
The assay can be described thus: biochemical.
As to `C[C@@H](Nc1nnc(N(C)C)c2cc(=O)n(C3(C)CC3)cc12)c1cccc(C(F)F)c1F` [Example 8, (R)-4-((1-(3-(difluoromethyl)-2-fluorophenyl)ethyl)amino)-1-(dimethylamino)-6-(1-methylcyclopropyl) pyrido[3,4-d]pyridazin-7(6H)-one], 7.7 nM corresponded to half-maximal inhibition (IC50).

`Cc1c([C@@H](C)Nc2nnc(N3CCC(F)(F)C3)c3cc(=O)n(C4CC4)cc23)cccc1C(F)(F)F` [Example 55, (R)-6-cyclopropyl-1-(3,3-difluoropyrrolidin-1-yl)-4-((1-(2-methyl-3-(trifluoromethyl)phenyl)ethyl)amino)pyr ido[3,4-d]pyridazin-7(6H)-one]: the IC50 amounted to 49.2 nM.

As for `C[C@@H](Nc1nnc(N2CCN(C(C)(C)C)CC2)c2cc(=O)n(C3(C)CC3)cc12)c1cccc(C(F)(F)F)c1F` [Example 172, (R)-4-((1-(2-fluoro-3-(trifluoromethyl)phenyl)ethyl)amino)-1-(4-tert-butylpiperazin-1-yl)-6-(1-methylcyclopropyl) pyrido[3,4-d]pyridazin-7(6H)-one], the IC50 was 4.7 nM.

`Cc1c(C#N)cccc1[C@@H](C)Nc1nnc(N2CCN(C3CCC3)CC2)c2cc(=O)n(C3CC3)cc12` [Example 100, (R)-3-(1-((1-(4-cyclobutylpiperazin-1-yl)-6-cyclopropyl-7-oxo-6,7-dihydropyrido[3,4-d]pyridazin-4-yl)amino)ethyl)-2-methylbenzonitrile] came in with a half-maximal inhibitory concentration (IC50) of 10.9 nM.

Regarding `Cc1c(C#N)cccc1[C@@H](C)Nc1nnc(N2CCS(=O)(=O)CC2)c2cc(=O)n(C3(C)CC3)cc12` [Example 72, (R)-3-(1-((1-(1,1-dioxidothiomorpholino)-6-(1-methylcyclopropyl)-7-oxo-6,7-dihydropyrido[3,4-d]pyridazin-4-yl)amino)ethyl)-2-methylbenzonitrile], the IC50 amounted to 50.4 nM.

Take `C[C@@H](Nc1nnc(N2C3CCC2COC3)c2cc(=O)n(C3(C)CC3)cc12)c1cccc(C(F)F)c1F` [Example 202, 1-(3-oxa-8-azabicyclo[3.2.1]octan-8-yl)-4-(((R)-1-(3-(difluoromethyl)-2-fluorophenyl)ethyl)amino)-6-(1-methylcyclopropyl) pyrido[3,4-d]pyridazin-7(6H)-one]: inhibition was half-maximal at 12.4 nM (IC50).

The molecule `C[C@@H](Nc1nnc(NC2CCN(C)C2)c2cc(=O)n(C3(C)CC3)cc12)c1cccc(C(F)F)c1F` (stereo partly drawn) [Example 126, 4-(((R)-1-(3-(difluoromethyl)-2-fluorophenyl)ethyl)amino)-6-(1-methylcyclopropyl)-1-((1-methylpyrrolidin-3-yl)amino)pyrido[3,4 d]pyridazin-7(6H)-one] returned an IC50 of 9.4 nM.

For the molecule `Cc1c(C#N)cccc1[C@@H](C)Nc1nnc(N(C)C)c2cc(=O)n(C3(C)CC3)cc12` [Example 84, (R)-3-(1-((1-(dimethylamino)-6-(1-methylcyclopropyl)-7-oxo-6,7-dihydropyrido[3,4-d]pyridazin-4-yl)amino)ethyl)-2-methylbenzonitrile], the IC50 was 18.7 nM.

`Cc1c([C@@H](C)Nc2nnc(N3CCN(C(C)(C)C)CC3)c3cc(=O)n(C4(C)CC4)cc23)cccc1C(F)(F)F` [Example 95, (R)-1-(4-(tert-butyl)piperazin-1-yl)-4-((1-(2-methyl-3-(trifluoromethyl)phenyl)ethyl)amino)-6-(1-methylcyclopropyl) pyrido[3,4-d]pyridazin-7(6H)-one] came in with an IC50 of 6.8 nM.

In the case of `Cc1c(C#N)cccc1[C@@H](C)Nc1nnc(N2CCN(C)CC2)c2cc(=O)n(C3CC3)cc12` [Example 87, (R)-3-(1-((6-cyclopropyl-1-(4-methylpiperazin-1-yl)-7-oxo-6,7-dihydropyrido[3,4-d]pyridazin-4-yl)amino)ethyl)-2-methylbenzonitrile], the IC50 came to 5.7 nM.

For `C[C@@H](Nc1nnc(N2CCC[C@@H]2CO)c2cc(=O)n(C3(C)CC3)cc12)c1cccc(C(F)F)c1F` [Example 139, 4-(((R)-1-(3-(difluoromethyl)-2-fluorophenyl)ethyl)amino)-1-((R)-2-(hydroxymethyl)pyrrolidin-1-yl)-6-(1-methylcyclopropyl) pyrido[3,4-d]pyridazin-7(6H)-one], 6.2 nM corresponded to half-maximal inhibition (IC50).

The molecule `Cc1c([C@@H](C)Nc2nnc(N3CCN(C4CCCC4)CC3)c3cc(=O)n(C4(C)CC4)cc23)cccc1C(F)(F)F` [Example 96, (R)-1-(4-cyclopentylpiperazin-1-yl)-4-((1-(2-methyl-3-(trifluoromethyl)phenyl)ethyl)amino)-6-(1-methylcyclopropyl) pyrido[3,4-d]pyridazin-7(6H)-one] had an IC50 of 7.4 nM.

`C[C@@H](Nc1nnc(N2CC3(COC3)C2)c2cc(=O)n(C3(C)CC3)cc12)c1cccc(C(F)F)c1F` [Example 190, (R)-4-((1-(3-(difluoromethyl)-2-fluorophenyl)ethyl)amino)-6-(1-methylcyclopropyl)-1-(2-oxa-6-azaspiro[3.3]heptan-6-yl)pyrido[3,4-d]pyridazin-7(6H)-one] gave an IC50 of 4.2 nM.

In turn, `CCN(CC)c1nnc(N[C@H](C)c2cccc(C(F)F)c2F)c2cn(C3CC3)c(=O)cc12` [Example 17, (R)-6-cyclopropyl-1-(diethylamino)-4-((1-(3-(difluoromethyl)-2-fluorophenyl)ethyl)amino)pyrido[3,4-d]pyridazin-7(6H)-one] gave an IC50 of 11.2 nM.

In turn, `CCN1CCN(c2nnc(N[C@H](C)c3cccc(C#N)c3C)c3cn(C4CC4)c(=O)cc23)CC1` [Example 224, (R)-3-(1-((6-cyclopropyl-1-(4-ethylpiperazin-1-yl)-7-oxo-6,7-dihydropyrido[3,4-d]pyridazin-4-yl)amino)ethyl)-2-methylbenzonitrile] yielded an IC50 of 8.4 nM.

As for `Cc1c([C@@H](C)Nc2nnc(N3CCC(F)(F)CC3)c3cc(=O)n(C4CC4)cc23)cccc1C(F)(F)F` [Example 58, (R)-6-cyclopropyl-1-(4,4-difluoropiperidin-1-yl)-4-((1-(2-methyl-3-(trifluoromethyl)phenyl)ethyl)amino)pyr ido[3,4-d]pyridazin-7(6H)-one], it took 100 nM to reach half-maximal inhibition (IC50).

Take `Cc1c([C@@H](C)Nc2nnc(N3CCN(C)CC3)c3cc(=O)n(C4(C)CC4)cc23)cccc1S(=O)(=O)C(F)F` [Example 209, (R)-4-((1-(3-((difluoromethyl)sulfonyl)-2-methylphenyl)ethyl)amino)-6-(1-methylcyclopropyl)-1-(4-methylpiperazin-1-yl)pyrido[3,4-d]pyridazin-7(6H)-one]: the IC50 worked out at 4.4 nM.

In turn, `CC(C)N1CCN(c2nnc(N[C@H](C)c3cccc(C(F)(F)F)c3)c3cn(C4(C)CC4)c(=O)cc23)CC1` [Example 155, (R)-1-(4-isopropylpiperazin-1-yl)-6-(1-methylcyclopropyl)-4-((1-(3-(trifluoromethyl)phenyl)ethyl)amino)pyr ido[3,4-d]pyridazin-7(6H)-one formate] displayed an IC50 of 5.6 nM.

Turning to `Cc1c(C#N)cccc1[C@@H](C)Nc1nnc(N2CCC(F)(F)CC2)c2cc(=O)n(C3CC3)cc12` [Example 43, (R)-3-(1-((6-cyclopropyl-1-(4,4-difluoropiperidin-1-yl)-7-oxo-6,7-dihydropyrido[3,4-d]pyridazin-4-yl)amino)ethyl)-2-methylbenzonitrile], half-maximal inhibition (IC50) required 84.2 nM.

As to `Cc1c([C@@H](C)Nc2nnc(N3CC(F)(F)C3)c3cc(=O)n(C4(C)CC4)cc23)cccc1C(F)(F)F` [Example 66, (R)-1-(3,3-difluoroazetidin-1-yl)-4-((1-(2-methyl-3-(trifluoromethyl)phenyl)ethyl)amino)-6-(1-methylcyclopropyl) pyrido[3,4-d]pyridazin-7(6H)-one], the IC50 is 30.9 nM.

As to `C[C@@H](Nc1nnc(N2CCC3(CCN(C)C3)C2)c2cc(=O)n(C3(C)CC3)cc12)c1cccc(C(F)F)c1F` (stereo partly drawn) [Example 183, 4-(((R)-1-(3-(difluoromethyl)-2-fluorophenyl)ethyl)amino)-1-(7-methyl-2,7-diazaspiro[4.4]nonan-2-yl)-6-(1-methylcyclopropyl) pyrido[3,4-d]pyridazin-7(6H)-one], half-maximal inhibition (IC50) required 4.9 nM.

Turning to `C[C@@H](Nc1nnc(NN2CCOCC2)c2cc(=O)n(C3(C)CC3)cc12)c1cccc(C(F)(F)F)c1` [Example 158, (R)-6-(1-methylcyclopropyl)-1-(morpholinoamino)-4-((1-(3-(trifluoromethyl)phenyl)ethyl)amino)pyr ido[3,4-d]pyridazin-7(6H)-one formate], the IC50 was found to be 6.9 nM.

Source of the values: patent EP4722213A1, “NITROGEN-CONTAINING FUNCTIONAL GROUP-SUBSTITUTED PYRIDAZINOPYRIDONE DERIVATIVE AND USE THEREOF” (Sichuan Huiyu Pharmaceutical Co., Ltd., priority 2023, dated 2024).
